Drawing on publication PMC8637440, “Structural Modifications Yield Novel Insights Into the Intriguing Pharmacodynamic Potential of Anti-inflammatory Nitro-Fatty Acids” (Frontiers in Pharmacology, 2021), this text covers IC50 for 2 compounds.

Structures are written as SMILES. Read-outs that look alike come from different tables or passages of the source.

The target in one assay is T1, 5-LO (Homo sapiens, UniProt P09917).
T1 construct: endogenous in cells; host or cells: human PMNL from buffy coats
T1 sequence (P09917 1-674): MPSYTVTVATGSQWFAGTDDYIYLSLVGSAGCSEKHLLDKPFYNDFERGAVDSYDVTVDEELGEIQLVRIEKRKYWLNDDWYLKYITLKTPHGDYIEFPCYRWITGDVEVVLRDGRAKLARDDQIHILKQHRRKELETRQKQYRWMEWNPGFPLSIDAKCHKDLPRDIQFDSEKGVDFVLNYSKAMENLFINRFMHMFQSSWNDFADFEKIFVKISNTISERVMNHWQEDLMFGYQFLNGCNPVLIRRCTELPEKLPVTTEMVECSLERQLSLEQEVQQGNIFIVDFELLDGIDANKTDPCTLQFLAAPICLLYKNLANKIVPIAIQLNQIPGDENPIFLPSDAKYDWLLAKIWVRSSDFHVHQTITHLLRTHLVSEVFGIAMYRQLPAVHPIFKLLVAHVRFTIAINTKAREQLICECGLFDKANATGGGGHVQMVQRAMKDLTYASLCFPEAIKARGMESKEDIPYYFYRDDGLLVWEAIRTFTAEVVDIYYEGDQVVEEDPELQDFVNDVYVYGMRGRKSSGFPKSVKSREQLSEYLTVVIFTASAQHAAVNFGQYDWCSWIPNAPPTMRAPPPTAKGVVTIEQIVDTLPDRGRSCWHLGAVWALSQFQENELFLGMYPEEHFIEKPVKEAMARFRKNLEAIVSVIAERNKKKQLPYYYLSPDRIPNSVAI
Description: 5-LO product formation (LTB4, 5-HETE) in intact PMNL, A23187 in absence of AA. The format is cell-based. The method, then: Buffy coats from different donors of different blood types were commercially obtained from DRK Blutspendedienst Baden-Württemberg Institute Frankfurt. Donors have given their written consent. To avoid initial blood clotting only buffy coats from one donor or several donors with the same blood type were combined and diluted with 1× PBS mixed with 5% dextran solution and allowed to stand for 30 min at RT to separate the erythrocytes. Following separation, the supernatant was transferred very gently to new 50-ml tubes containing lymphocyte separation medium (LSM) and centrifuged for 10 min at 800 ×g at RT with the centrifuge brake turned off. Afterwards, the supernatant was decanted carefully to discard the platelets and monocytes. The PMNL were washed with 1× PBS before the residual erythrocytes were lysed in two cycles: the cell pellet was resuspended with 10 ml H2O and vortexed for 45 s, and lysis was stopped with 40 ml 1 × PBS. After 10-min centrifugation at 200 ×g at RT, the cycle was repeated once. The supernatant was aspirated, the cell pellet resuspended in 5 ml PBS/glucose and initially separated PMNL preparations with different blood types were finally pooled to gain a sufficient number of cells.
5-LO activity in intact cells was assayed by measuring LTB4 (leukotriene B4) and 5-HETE (5-hydroxyeicosatetraenoic acid) levels in the PMNL supernatants. […] Recombinant 5-LO enzyme activity was assessed by the determination of 5-HETE levels representing a direct product assay. In the cell-based LO activity assays, 5 × 10^6 cells per ml PBS/glucose were transferred to 5 ml glass tubes containing 1 mM CaCl2 and stored on ice. […] […] Recombinant 5-LO activity assays were carried out using 3 µg r5LO-wt enzyme. The enzyme was diluted in PBS/EDTA/ATP, transferred into 5-ml glass tubes, and stored on ice. […] The samples were then pre-heated at 37°C in a water bath and subsequently stimulated with 1 mM CaCl2 and 20 µM AA for 10 min at 37°C. The reaction was stopped by placing the glass tubes on ice. The supernatants were transferred to 1.5 ml reaction tubes and stored at −80°C before LC-MS (liquid chromatography and mass spectrometry) analysis of LTB4 and HETEs as described in 2.6 at the Institute of Pharmacology, Goethe University, University Hospital, Germany.
For experiments shown in Table 4 samples after treatment were supplemented with 500 µl PBS, 30 µl HCl (1 N), and 200 ng internal standard prostaglandin B1. Those samples containing intact cells were centrifuged for 10 min (870 g, room temperature). […] The eluate was diluted with 125 µl H2O and analyzed by reverse-phase HPLC as previously described ([Steinhilber et al., 1989]). […] Unless otherwise stated, 5-LO metabolites 6-trans-LTB4, 12-epi-6-trans-LTB4, LTB4, and 5-H(p)ETE were quantified.

The next assay addresses T2, 12-LO (Homo sapiens, UniProt P18054).
T2 construct: endogenous in cells; host or cells: platelet impurities in human PMNL preparations
T2 sequence (P18054 1-663): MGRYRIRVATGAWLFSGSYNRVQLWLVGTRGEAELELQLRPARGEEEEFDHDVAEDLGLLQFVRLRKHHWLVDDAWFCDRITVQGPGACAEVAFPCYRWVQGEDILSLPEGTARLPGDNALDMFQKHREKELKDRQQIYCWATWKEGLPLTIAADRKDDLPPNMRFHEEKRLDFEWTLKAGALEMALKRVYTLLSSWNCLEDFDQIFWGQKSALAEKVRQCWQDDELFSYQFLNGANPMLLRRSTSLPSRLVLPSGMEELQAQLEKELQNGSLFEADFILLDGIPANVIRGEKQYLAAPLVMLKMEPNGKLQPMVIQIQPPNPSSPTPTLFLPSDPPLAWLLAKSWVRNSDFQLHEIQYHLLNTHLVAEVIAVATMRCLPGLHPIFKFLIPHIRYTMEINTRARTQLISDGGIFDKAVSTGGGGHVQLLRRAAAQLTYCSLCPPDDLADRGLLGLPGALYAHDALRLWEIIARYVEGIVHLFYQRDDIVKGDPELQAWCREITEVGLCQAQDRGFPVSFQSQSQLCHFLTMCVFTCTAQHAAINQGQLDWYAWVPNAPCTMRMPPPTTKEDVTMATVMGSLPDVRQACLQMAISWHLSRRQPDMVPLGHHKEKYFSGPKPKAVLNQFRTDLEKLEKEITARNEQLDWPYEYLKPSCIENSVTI
The assay is described as follows: 12-HETE formation in intact PMNL, A23187 in absence of AA. To be noted: read-out: PMNL (w/o AA) 12-HETE IC50. Format: cell-based.

Setting [1] is: read-out: PMNL (w/o AA) 5-HETE IC50.
Setting [2] is: read-out: PMNL (w/o AA) LTB4 IC50.

On to `CCCCCCCCC=C(CCCCCCCC(=O)O)[N+](=O)[O-]` [18.9.9, 9-nitro-octadec-9-enoic acid], for which the IC50 on 5-LO (setting [1]) was 2.34 ± 1.5 µM; on 5-LO (setting [2]) it was 2.58 ± 1.4 µM; on 12-LO, 6.26 ± 0.823 µM.

In the case of `CCCCCCCCCCC=C(CCCCCCCC(=O)O)[N+](=O)[O-]` [20.9.9, 9-nitro-eicos-9-enoic acid], the results for the IC50 on 5-LO (setting [1]), at 5-LO (setting [2]) and at 12-LO were 2.06 ± 1.34 µM, 2.05 ± 1.25 µM and 15.5 ± 0.74 µM, respectively.
